The values that follow come from patent US10293053B2, “Silanol based therapeutic payloads” (BlinkBio, Inc., priority 2016, dated 2019).

Where two headings read alike, the source gives them in different places. Where a SMILES comes first, the peptide text is derived from it. [ ]: non-standard residue; d: D form. The star is where a group is joined. Dolaproine = CO[C@@H]([C@@H]1CCCN1)[C@@H](C)C(=O)O; Dil = CC[C@H](C)[C@H](NC)[C@@H](CC(=O)O)OC; NMe2Val = CC(C)[C@@H](C(=O)*)N(C)C; NMeV = CN[C@H](C(=O)O)C(C)C; X3 = C[Si](C)(O)CCCC(=O)*; X2 = C[Si](C)(O)CCCN*

Assay [1] concerns KB cells. The assay can be described thus: CellTiter-Glo cell viability, 72 hour incubation protocol. The conditions noted are these: Homo sapiens. The format is cell-based. The protocol:
72 hour incubation protocol: The CellTiter-Glo (CTG) assay (Promega) was used to measure cell viability in various different cell lines included KB cells obtained from American Type Culture Collection (ATCC). […] For this assay, 5,000 cells per well were plated in a 96-well tissue culture treated plate in RPMI 1640 medium (ThermoFisher Scientific) containing 5% FBS. Cells were allowed to settle at 37° C. in a humidified CO2 incubator for 24 hours. Cells were dosed with compound or vehicle control in duplicate for 72 hours at 37° C. in a humidified CO2 incubator. After the 72 hour dosing period, the CTG assay was performed according to the manufacturer's specifications. Luminescence was read using a Victor X5 (PerkinElmer) plate reader. Data was analyzed using Prism software and was normalized to the vehicle control.

In assay [2] the test system is KB cells. The experiment in a line: Cell titer-glo cell viability, washout protocol. The format is cell-based. The note with it: percent cell kill at 48 h. How it is done:
Washout protocol: KB cells in culture were seeded in white clear bottom 96-well tissue culture plate at a density of 5,000 cells per well in a folate free RPMI media with 10% FBS a day prior to compound addition. Cells were counted visually with a hemocytometer and diluted accordingly to obtain the desired density. Cells were allowed to incubate for 24 hours in a humidified CO2 atmosphere in an incubator at 37° C. The spent media was aspirated and replenished with 100 μL of fresh media containing a 3-fold serial dilution of compound with concentrations ranging from 0.3 to 2000 nM and with a final DMSO concentration of 0.1%. Blank wells without compound were also treated with media containing 0.1% DMSO. Cells were incubated for 2 h and washed 4 times with fresh media. […] […] 100 μL of constituted Cell titer-glo reagent was added to each well and luminescence was recorded with a VICTOR plate reader according to manufacturers' protocol.
For orientation: ATP-based viability assays read luminescence as a measure of living cells.

Setting [3] is: 72 h incubation protocol, silanol based payloads, read-out: EC50.

Turning to `CCCC(=O)OCN(C(=O)[C@@H](NC(=O)[C@H]1CCCCN1C)[C@@H](C)CC)[C@H](C[C@@H](OC(C)=O)c1nc(C(=O)N[C@@H](Cc2ccc(O)cc2)C[C@H](C)C(=O)NCCC[Si](C)(C)O)cs1)C(C)C` (stereo in doubt) [Example 13], in the assay on KB cells [1] (72 h), the EC50 (in general, the concentration at which the effect is half-maximal) was below 0.1 nM.

For `CC[C@@]1(O)C(=O)OCc2c1cc1n(c2=O)Cc2c-1nc1ccccc1c2CC[Si](C)(C)O` [Example 7, (S)-4-Ethyl-4-hydroxy-11-(2-(hydroxydimethylsilyl)ethyl)-1,12-dihydro-14H-pyrano[3′,4′:6,7]indolizino[1,2-b]quinoline-3,14(4H)-dione], in the assay with KB cells [1] (setting [3]), the 50% effective concentration (EC50) was around 56 nM.

For `CC[C@]1(O)C[C@@H]2CN(CCc3c([nH]c4ccccc34)[C@@](C(=O)OC)(c3cc4c(cc3OC)N(C)[C@H]3[C@@](O)(C(=O)NCCC[Si](C)(C)O[Si](C)(C)CSc5ncc(Cn6cc(C[C@H](NC(=O)[C@H](CC(=O)O)NC(=O)[C@H](CC(=O)O)NC(=O)[C@H](CCCNC(=N)N)NC(=O)[C@H](CC(=O)O)NC(=O)CC[C@H](NC(=O)c7ccc(NCc8cnc9nc(N)[nH]c(=O)c9n8)cc7)C(=O)O)C(=O)O)nn6)cn5)[C@H](O)[C@]5(CC)C=CCN6CC[C@]43[C@@H]65)C2)C1` [Example 28], the “% Kill (48 h)” value in the assay with KB cells [2] is on record as 86%. Turning to `CC[C@H](C)[C@@H]([C@@H](CC(=O)N1CCC[C@H]1[C@H](OC)[C@@H](C)C(=O)N[C@@H](Cc1ccccc1)C(=O)O)OC)N(C)C(=O)[C@@H](NC(=O)[C@H](C(C)C)N(C)C(=O)CCC[Si](C)(C)O)C(C)C` [Example 6, ((2R,3R)-3-((S)-1-((3R,4S,5S)-4-((S)-2-((S)-2-(4-(hydroxydimethylsilyl)-N-methylbutanamido)-3-methylbutanamido)-N,3-dimethylbutanamido)-3-methoxy-5-methylheptanoyl)pyrrolidin-2-yl)-3-methoxy-2-methylpropanoyl)-L-phenylalanine] (X3-[NMeV]V[Dil][Dolaproine]F-OH), the EC50 in the assay with KB cells [1] (72 h) is around 500 nM. Regarding `CC[C@]1(O)C[C@H]2CN(CCc3c([nH]c4ccccc34)[C@@](C(=O)OC)(c3cc4c(cc3OC)N(C)[C@H]3[C@@](O)(C(=O)NCCC[Si](C)(C)O)[C@H](O)[C@]5(CC)C=CCN6CC[C@]43[C@@H]65)C2)C1` (stereo in doubt) [Example 1, Methyl (3R,5S,7R,9S)-5-ethyl-9-((3aR,3a1R,4R,5S,5aR,10bR)-3a-ethyl-4,5-dihydroxy-5-((3-(hydroxydimethylsilyl)propyl)carbamoyl)-8-methoxy-6-methyl-3a,3a1,4,5,5a,6,11,12-octahydro-1H-indolizino[8,1-cd]carbazol-9-yl)-5-hydroxy-1,4,5,6,7,8,9,10-octahydro-2H-3,7-methano[1]azacycloundecino[5,4-b]indole-9-carboxylate], the EC50 in the assay with KB cells [1] (setting [3]) was around 6 nM.

The compound `CC[C@H](C)[C@@H]([C@@H](CC(=O)N1CCC[C@H]1[C@H](OC)[C@@H](C)C(=O)N[C@@H](Cc1ccccc1)C(=O)NCCC[Si](C)(C)O)OC)N(C)C(=O)[C@@H](NC(=O)[C@H](C(C)C)N(C)C)C(C)C` [Example 5, (S)—N-((3R,4S,5S)-1-((S)-2-((3R,4R,7S)-7-benzyl-13-hydroxy-4,13-dimethyl-5,8-dioxo-2-oxa-6,9-diaza-13-silatetradecan-3-yl)pyrrolidin-1-yl)-3-methoxy-5-methyl-1-oxoheptan-4-yl)-2-((S)-2-(dimethylamino)-3-methylbutanamido)-N,3-dimethylbutanamide] (NMe2Val-V[Dil][Dolaproine]F-X2) yielded an EC50 in the assay on KB cells [1] (72 h) of around 0.5 nM. Regarding `CC[C@]1(O)C[C@@H]2CN(CCc3c([nH]c4ccccc34)[C@@](C(=O)OC)(c3cc4c(cc3OC)N(C)[C@H]3[C@@](O)(C(=O)NCCC[Si](C)(C)O[Si](C)(C)CSc5ncc(Cn6cc(COCCOCCOCCOCCOCCOCCNC(=O)CC[C@H](NC(=O)c7ccc(NCc8cnc9nc(N)[nH]c(=O)c9n8)cc7)C(=O)O)nn6)cn5)[C@H](O)[C@]5(CC)C=CCN6CC[C@]43[C@@H]65)C2)C1` [Example 24], in the assay with KB cells [2], the “% Kill (48 h)” value came out at 84%.

In the case of `CC[C@]1(O)CC2CN(CCc3c([nH]c4ccccc34)[C@@](C(=O)OC)(c3cc4c(cc3OC)N(C)[C@H]3[C@@](O)(C(=O)NCCC[Si](C)(C)O[Si](C)(C)CSc5ncc(COCCOCCOCCn6cc(COCC(COCc7cn(CCOCCOCCOCc8cnc(SC[Si](C)(C)O[Si](C)(C)CCCNC(=O)[C@@]9(O)[C@H](O)[C@]%10(CC)C=CCN%11CC[C@@]%12(c%13cc([C@@]%14(C(=O)OC)CC%15CN(CCc%16c%14[nH]c%14ccccc%16%14)C[C@](O)(CC)C%15)c(OC)cc%13N(C)[C@@H]9%12)[C@@H]%11%10)nc8)nn7)(COCc7cn(CCOCCOCCOCc8cnc(SC[Si](C)(C)O[Si](C)(C)CCCNC(=O)[C@@]9(O)[C@H](O)[C@]%10(CC)C=CCN%11CC[C@@]%12(c%13cc([C@@]%14(C(=O)OC)CC%15CN(CCc%16c%14[nH]c%14ccccc%16%14)C[C@](O)(CC)C%15)c(OC)cc%13N(C)[C@@H]9%12)[C@@H]%11%10)nc8)nn7)NC(=O)CCOCCOCCOCCOCCOCCOCCNC(=O)CC[C@H](NC(=O)c7ccc(NCc8cnc9nc(N)[nH]c(=O)c9n8)cc7)C(=O)O)nn6)cn5)[C@H](O)[C@]5(CC)C=CCN6CC[C@]43[C@@H]65)C2)C1` (some centres unmarked) [Example 27], in the assay on KB cells [2], the “% Kill (48 h)” value was 80%.
